The target of assay [1] is T1, EbPPK2 (polyphosphate kinase 2 class III from an Erysipelotrichaceae bacterium) (Erysipelotrichaceae bacterium, UniProt P0DY74).
T1 construct: gene DHS57_05705; purified; 146 kDa homotetramer
T1 sequence (P0DY74 1-298): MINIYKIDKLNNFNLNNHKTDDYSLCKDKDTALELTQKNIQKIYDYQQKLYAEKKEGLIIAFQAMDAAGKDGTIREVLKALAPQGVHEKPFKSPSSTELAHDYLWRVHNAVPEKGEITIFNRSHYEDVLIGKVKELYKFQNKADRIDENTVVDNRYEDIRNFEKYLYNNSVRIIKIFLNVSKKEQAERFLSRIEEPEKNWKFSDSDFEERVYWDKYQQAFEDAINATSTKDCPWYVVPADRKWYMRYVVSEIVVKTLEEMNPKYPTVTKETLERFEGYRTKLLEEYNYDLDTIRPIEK
Put plainly: HPLC conversion to NDP/NTP. Format: biochemical. The following applies: 1 mM NMP, 1 μM enzyme, 6.1 g/L sodium polyphosphate, 20 mM MgCl2, 20 mM Tris pH 8, 30 °C, 10 min.

Assay [2] has as its target T1, EbPPK2 (polyphosphate kinase 2 class III from an Erysipelotrichaceae bacterium). The experiment in a line: X-ray crystal structure. The following applies: 1.7 Å; ternary complex with polyP and Mg2+; nucleotide-binding pocket of the active site.

On to `Nc1ncnc2c1ncn2[C@@H]1O[C@H](COP(=O)(O)O)[C@@H](O)[C@H]1O` [1a, AMP], for which the “HPLC conversion to NDP/NTP” value in assay [1] is recorded as “Starting from AMP (1a), the reaction approached a distribution of AMP”.

Consider `Nc1nc2c(ncn2[C@@H]2O[C@H](COP(=O)(O)O)[C@@H](O)[C@H]2O)c(=O)[nH]1` [5a, GMP], for which, in assay [1], the “HPLC conversion to NDP/NTP” value is “GMP and GMP-like analogues were phosphorylated more slowly by EbPPK”.

As for `Nc1ncnc2c1ncn2[C@@H]1O[C@H](COP(=O)(O)OP(=O)(O)CP(=O)(O)O)[C@@H](O)[C@H]1O` [adenosine-5′-[(β,γ)-methyleno]triphosphate], the X-ray crystal structure result in assay [2] was “EbPPK2 in complex with the non-hydrolysable ATP analogue adenosine-5′-[(β,γ)-methyleno]triphosphate (ACP) and polyP (PDB: 9IGQ)”.

Source of the values: paper PMC12257356, “Structure-guided engineering of a polyphosphate kinase 2 class III from an Erysipelotrichaceae bacterium to produce base-modified purine nucleotides” (RSC Chemical Biology, 2025).
